Laboratory results reported in paper PMC12626888, “Discovery of iridoid cyclase completes the iridoid pathway in asterids” (Nature Plants, 2025).

How the values were obtained:
Format in all cases: biochemical
AmICYC [1] = biological target: T1, AmICYC (Antirrhinum majus, UniProt Z9RFY5ZUY7); assay: spectrophotometric esterase assay, […] nm; conditions: 2 mM substrate; 0.5 uM enzyme; 100 mM HEPES pH 7; 1 mM CaCl2; 25 °C
T1 construct: synthetic full-length gene in pOPINF, His-tagged, E. coli SoluBL21 (DE3), Ni-NTA
T1 sequence (Z9RFY5ZUY7 1-261): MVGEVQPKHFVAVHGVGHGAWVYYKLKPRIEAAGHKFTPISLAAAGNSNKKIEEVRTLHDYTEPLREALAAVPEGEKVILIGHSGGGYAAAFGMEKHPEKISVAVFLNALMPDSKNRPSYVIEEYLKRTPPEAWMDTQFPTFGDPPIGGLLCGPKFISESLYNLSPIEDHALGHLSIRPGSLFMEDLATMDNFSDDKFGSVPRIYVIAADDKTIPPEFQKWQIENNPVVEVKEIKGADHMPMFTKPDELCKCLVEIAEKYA

CiICYC [2] = biological target: T2, CiICYC (Carapichea ipecacuanha, UniProt Z9ZM09DHC0); assay: spectrophotometric esterase assay, […] nm; conditions: 2 mM substrate; 0.5 uM enzyme; 100 mM HEPES pH 7; 1 mM CaCl2; 25 °C
T2 construct: full-length CDS in pOPINF, His-tagged, E. coli SoluBL21 (DE3), Ni-NTA
T2 sequence (Z9ZM09DHC0 1-260): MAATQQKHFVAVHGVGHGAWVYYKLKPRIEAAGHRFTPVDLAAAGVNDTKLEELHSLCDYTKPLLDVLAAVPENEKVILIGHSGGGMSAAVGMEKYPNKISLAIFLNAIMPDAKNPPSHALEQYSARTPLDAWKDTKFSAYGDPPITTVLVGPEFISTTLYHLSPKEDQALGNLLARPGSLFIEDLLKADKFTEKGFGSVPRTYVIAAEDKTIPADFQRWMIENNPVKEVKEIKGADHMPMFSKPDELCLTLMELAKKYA

AsICYC [3] = biological target: T3, AsICYC (Alangium salviifolium, UniProt Z9MAI7V5A1); assay: spectrophotometric esterase assay, […] nm; conditions: 2 mM substrate; 0.5 uM enzyme; 100 mM HEPES pH 7; 1 mM CaCl2; 25 °C
T3 construct: full-length CDS in pOPINF, His-tagged, E. coli SoluBL21 (DE3), Ni-NTA
T3 sequence (Z9MAI7V5A1 1-262): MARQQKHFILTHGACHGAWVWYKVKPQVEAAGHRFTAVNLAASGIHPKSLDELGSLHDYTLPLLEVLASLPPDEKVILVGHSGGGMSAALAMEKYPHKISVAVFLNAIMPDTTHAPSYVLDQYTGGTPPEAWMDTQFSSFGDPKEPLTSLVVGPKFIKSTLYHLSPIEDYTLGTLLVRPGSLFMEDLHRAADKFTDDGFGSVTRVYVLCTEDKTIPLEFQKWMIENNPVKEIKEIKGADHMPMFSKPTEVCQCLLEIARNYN

LjICYC [4] = biological target: T4, LjICYC (Lonicera japonica, UniProt Z9XP04JJ76); assay: spectrophotometric esterase assay, […] nm; conditions: 2 mM substrate; 0.5 uM enzyme; 100 mM HEPES pH 7; 1 mM CaCl2; 25 °C
T4 construct: synthetic full-length gene in pOPINF, His-tagged, E. coli SoluBL21 (DE3), Ni-NTA
T4 sequence (Z9XP04JJ76 1-260): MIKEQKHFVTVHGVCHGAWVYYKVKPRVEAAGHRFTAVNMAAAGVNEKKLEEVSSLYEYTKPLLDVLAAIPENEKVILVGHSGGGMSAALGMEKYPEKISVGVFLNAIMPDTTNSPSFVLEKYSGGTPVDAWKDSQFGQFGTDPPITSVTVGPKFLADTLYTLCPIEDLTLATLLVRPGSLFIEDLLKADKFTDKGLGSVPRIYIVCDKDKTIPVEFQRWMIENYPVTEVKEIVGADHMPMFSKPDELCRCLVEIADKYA

VcICYC [5] = biological target: T5, VcICYC (Vaccinium corymbosum, UniProt Z9DZC4CR80); assay: spectrophotometric esterase assay, […] nm; conditions: 2 mM substrate; 0.5 uM enzyme; 100 mM HEPES pH 7; 1 mM CaCl2; 25 °C
T5 construct: synthetic full-length gene in pOPINF, His-tagged, E. coli SoluBL21 (DE3), Ni-NTA
T5 sequence (Z9DZC4CR80 1-256): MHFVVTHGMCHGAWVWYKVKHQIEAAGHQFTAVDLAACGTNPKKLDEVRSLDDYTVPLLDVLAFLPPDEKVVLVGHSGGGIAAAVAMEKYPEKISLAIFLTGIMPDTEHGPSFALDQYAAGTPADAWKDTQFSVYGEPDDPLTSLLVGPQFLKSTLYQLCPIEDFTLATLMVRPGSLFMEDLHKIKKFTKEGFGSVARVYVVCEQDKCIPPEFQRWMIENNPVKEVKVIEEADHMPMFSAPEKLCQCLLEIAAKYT

CrICYC [6] = biological target: T6, CrICYC (Catharanthus roseus, UniProt Z9BZX6L7S3); assay: spectrophotometric esterase assay, […] nm; conditions: 2 mM substrate; 0.5 uM enzyme; 100 mM HEPES pH 7; 1 mM CaCl2; 25 °C
T6 construct: full-length CDS in pOPINF, His-tagged, E. coli SoluBL21 (DE3), Ni-NTA
T6 sequence (Z9BZX6L7S3 1-258): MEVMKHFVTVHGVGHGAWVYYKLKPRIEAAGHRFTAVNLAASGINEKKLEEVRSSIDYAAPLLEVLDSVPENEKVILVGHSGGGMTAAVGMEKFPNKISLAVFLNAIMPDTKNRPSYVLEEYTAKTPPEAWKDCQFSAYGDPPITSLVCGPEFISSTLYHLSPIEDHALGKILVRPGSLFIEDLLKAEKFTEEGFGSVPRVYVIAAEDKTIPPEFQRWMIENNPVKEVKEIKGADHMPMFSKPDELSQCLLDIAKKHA

SiICYC [7] = biological target: T7, SiICYC (Sesamum indicum, UniProt A0A6I9UJQ5); assay: spectrophotometric esterase assay, […] nm; conditions: 2 mM substrate; 0.5 uM enzyme; 100 mM HEPES pH 7; 1 mM CaCl2; 25 °C
T7 construct: gene LOC105177689; synthetic full-length gene in pOPINF, His-tagged, E. coli SoluBL21 (DE3), Ni-NTA
T7 sequence (A0A6I9UJQ5 entry or part of it): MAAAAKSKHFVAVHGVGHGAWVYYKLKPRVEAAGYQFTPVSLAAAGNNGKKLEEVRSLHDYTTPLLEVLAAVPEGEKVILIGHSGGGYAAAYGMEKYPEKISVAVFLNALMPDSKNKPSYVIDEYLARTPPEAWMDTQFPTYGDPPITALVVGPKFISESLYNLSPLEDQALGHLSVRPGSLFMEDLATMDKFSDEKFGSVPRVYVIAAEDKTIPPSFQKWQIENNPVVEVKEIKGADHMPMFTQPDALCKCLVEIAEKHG

AmISY = biological target: T8, AmISY (Antirrhinum majus, UniProt A0A221J5P3); assay: GC-MS of products; conditions: 0.5 mM 8-oxogeranial; 1 mM NADPH; 0.5 uM AmISY; 100 mM MOPS pH 7.5; 30 °C; 3 h
T8 construct: gene ISY; recombinant, E. coli, pOPINF His-tagged
T8 sequence (A0A221J5P3 1-387): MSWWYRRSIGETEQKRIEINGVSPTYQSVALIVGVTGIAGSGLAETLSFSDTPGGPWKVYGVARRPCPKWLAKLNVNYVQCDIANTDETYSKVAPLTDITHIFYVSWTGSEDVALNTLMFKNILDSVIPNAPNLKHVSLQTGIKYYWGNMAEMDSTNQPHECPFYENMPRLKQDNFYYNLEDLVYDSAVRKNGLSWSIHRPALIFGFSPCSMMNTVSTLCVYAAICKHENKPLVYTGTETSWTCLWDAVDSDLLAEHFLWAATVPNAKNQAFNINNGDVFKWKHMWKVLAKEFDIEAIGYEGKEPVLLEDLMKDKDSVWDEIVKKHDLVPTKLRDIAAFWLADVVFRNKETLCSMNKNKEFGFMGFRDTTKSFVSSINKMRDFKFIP

CrISY = biological target: T9, CrISY (Catharanthus roseus, UniProt K7WDL7); assay: GC-MS of products; conditions: 0.5 mM 8-oxogeranial; 1 mM NADPH; 0.25 uM CrISY; 100 mM MOPS pH 7.5; 30 °C; 3 h
T9 construct: recombinant, E. coli, pOPINF His-tagged
T9 sequence (K7WDL7 whole entry): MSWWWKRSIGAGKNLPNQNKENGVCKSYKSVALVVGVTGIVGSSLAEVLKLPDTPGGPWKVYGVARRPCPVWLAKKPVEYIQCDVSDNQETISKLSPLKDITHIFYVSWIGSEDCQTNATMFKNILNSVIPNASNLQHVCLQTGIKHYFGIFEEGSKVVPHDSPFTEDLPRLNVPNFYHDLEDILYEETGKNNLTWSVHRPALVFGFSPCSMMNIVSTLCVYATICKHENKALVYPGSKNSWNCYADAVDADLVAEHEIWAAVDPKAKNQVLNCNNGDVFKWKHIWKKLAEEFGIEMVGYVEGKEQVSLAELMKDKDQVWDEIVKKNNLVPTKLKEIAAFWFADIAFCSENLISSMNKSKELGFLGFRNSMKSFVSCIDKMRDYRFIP

AmICYC [8] = biological target: T1, AmICYC; assay: GC-MS of 7R-cis-cis nepetalactol formed in coupled assay with AmISY; conditions: enol generated in situ from 0.5 mM 8-oxogeranial by AmISY with 1 mM NADPH; 2 uM ICYC; 100 mM MOPS pH 7.5; 30 °C; 3 h
SiICYC [9] = biological target: T7, SiICYC; assay: as above; conditions: enol generated in situ from 0.5 mM 8-oxogeranial by AmISY with 1 mM NADPH; 2 uM ICYC; 100 mM MOPS pH 7.5; 30 °C; 3 h
VcICYC [10] = biological target: T5, VcICYC; assay: GC-MS of 7S-cis-trans nepetalactol formed in coupled assay with CrISY; conditions: enol generated in situ from 0.5 mM 8-oxogeranial by CrISY with 1 mM NADPH; 2 uM ICYC; 100 mM MOPS pH 7.5; 30 °C; 3 h
LjICYC [11] = biological target: T4, LjICYC; assay: as above; conditions: enol generated in situ from 0.5 mM 8-oxogeranial by CrISY with 1 mM NADPH; 2 uM ICYC; 100 mM MOPS pH 7.5; 30 °C; 3 h
CrICYC [12] = biological target: T6, CrICYC; assay: as above; conditions: enol generated in situ from 0.5 mM 8-oxogeranial by CrISY with 1 mM NADPH; 2 uM ICYC; 100 mM MOPS pH 7.5; 30 °C; 3 h
AsICYC [13] = biological target: T3, AsICYC; assay: as above; conditions: enol generated in situ from 0.5 mM 8-oxogeranial by CrISY with 1 mM NADPH; 2 uM ICYC; 100 mM MOPS pH 7.5; 30 °C; 3 h
CiICYC [14] = biological target: T2, CiICYC; assay: as above; conditions: enol generated in situ from 0.5 mM 8-oxogeranial by CrISY with 1 mM NADPH; 2 uM ICYC; 100 mM MOPS pH 7.5; 30 °C; 3 h

CC(=O)Oc1ccc([N+](=O)[O-])cc1 [4-nitrophenyl acetate]
spectrophotometric esterase assay, 405 nm (AmICYC [1]): All ICYC orthologues showed esterase activity when tested with the model substrate 4-nitrophenyl acetate | spectrophotometric esterase assay, 405 nm (CiICYC [2]): All ICYC orthologues showed esterase activity when tested with the model substrate 4-nitrophenyl acetate | spectrophotometric esterase assay, 405 nm (AsICYC [3]): All ICYC orthologues showed esterase activity when tested with the model substrate 4-nitrophenyl acetate | spectrophotometric esterase assay, 405 nm (LjICYC [4]): All ICYC orthologues showed esterase activity when tested with the model substrate 4-nitrophenyl acetate | spectrophotometric esterase assay, 405 nm (VcICYC [5]): All ICYC orthologues showed esterase activity when tested with the model substrate 4-nitrophenyl acetate | spectrophotometric esterase assay, 405 nm (CrICYC [6]): All ICYC orthologues showed esterase activity when tested with the model substrate 4-nitrophenyl acetate | spectrophotometric esterase assay, 405 nm (SiICYC [7]): All ICYC orthologues showed esterase activity when tested with the model substrate 4-nitrophenyl acetate

C/C(C=O)=C\CC/C(C)=C/C=O [8-oxogeranial]
GC-MS of products (AmISY): CrISY and AmISY reduce 8-oxogeranial to form the unstable intermediate S- or R-8-oxocitronellyl enol | GC-MS of products (CrISY): CrISY and AmISY reduce 8-oxogeranial to form the unstable intermediate S- or R-8-oxocitronellyl enol

C/C(C=O)=C\CC[C@@H](C)/C=C/O [R-8-oxocitronellyl enol]
GC-MS of 7R-cis-cis nepetalactol formed in coupled assay with AmISY (AmICYC [8]): When AmISY was assayed with ICYC orthologues, a new peak appeared | GC-MS of 7R-cis-cis nepetalactol formed in coupled assay with AmISY (SiICYC [9]): When AmISY was assayed with ICYC orthologues, a new peak appeared

C/C(C=O)=C\CC[C@H](C)/C=C/O [S-8-oxocitronellyl enol]
GC-MS of 7S-cis-trans nepetalactol formed in coupled assay with CrISY (VcICYC [10]): any of the ICYC orthologues, 7S-cis-trans (7S, 4aS, 7aS) nepetalactol accumulation was substantially increased | GC-MS of 7S-cis-trans nepetalactol formed in coupled assay with CrISY (LjICYC [11]): any of the ICYC orthologues, 7S-cis-trans (7S, 4aS, 7aS) nepetalactol accumulation was substantially increased | GC-MS of 7S-cis-trans nepetalactol formed in coupled assay with CrISY (CrICYC [12]): any of the ICYC orthologues, 7S-cis-trans (7S, 4aS, 7aS) nepetalactol accumulation was substantially increased | GC-MS of 7S-cis-trans nepetalactol formed in coupled assay with CrISY (AsICYC [13]): any of the ICYC orthologues, 7S-cis-trans (7S, 4aS, 7aS) nepetalactol accumulation was substantially increased | GC-MS of 7S-cis-trans nepetalactol formed in coupled assay with CrISY (CiICYC [14]): any of the ICYC orthologues, 7S-cis-trans (7S, 4aS, 7aS) nepetalactol accumulation was substantially increased
